Where a name gives a salt, the structure may show the parent alone.
biological target: syk kinase (Homo sapiens, UniProt P43405); assay: syk kinase peptide phosphorylation scintillation proximity assay (SPA); assay type: biochemical; settings: biotin-EDPDYEWPSA substrate, 33P-ATP, SPA beads, room temperature 30 minutes; read-out: IC50 (concentration at which 50% inhibition of syk kinase phosphorylation occurs)
Source text: Compounds of formula I in free or salt form are useful as pharmaceuticals. Accordingly the invention also provides a compound of formula I in free or pharmaceutically acceptable salt form for use as a pharmaceutical. The compounds of formula I in free or pharmaceutically acceptable salt form, hereinafter referred to alternatively as “agents of the invention”, inhibit the activity of the tyrosine protein kinase syk, which is an activator of pro-inflammatory cells driving an allergic response.
In this assay the effect of an agent of the invention on the phosphorylation of a peptide by syk kinase is determined. The phosphate is transferred from the terminal phosphate of adenosine triphosphate (ATP) to the biotin-modified peptide biotin-EDPDYEWPSA (available from Genosys) which is a known specific substrate for syk. When ^33P-phosphorylated peptide binds to streptavidin-polyvinyltoluene (PVT) Scintillation Proximity Assay (SPA) beads (available from Amersham), the emitted β-particles excite the fluorophore in the beads and produce light.
To the wells of an Optiplate (Canberra Packard) are added (i) the compound under test in DMSO/distilled water (10 μl), (ii) 20 μl of a composition formed by mixing 1 mM biotin-EDPDYEWPSA (5.5 μl), 300 μM ATP (18.3 μl), and ^33P-ATP in sufficient amount to add 0.1 μCi ^33P-ATP per well (1.1 μl on the day of production) and making up the volume to 2.2 ml with a buffer (Buffer A) prepared by dissolving tris-base (0.36 g) in distilled water (80 ml), adjusting the pH to 7.5 with 1M hydrochloric acid, adding 1M aqueous MgCl2 (1.5 ml), 50 mM aqueous sodium orthovanadate (30 μl) and 1M aqueous dithiothrietol (150 μl), and making the volume up to 120 ml with distilled water, (iii) 0.5% w/v syk kinase in Buffer A (20 μl). The plate is incubated at room temperature for 30 minutes with shaking, the reaction is then terminated by addition to all wells of 150 μl of a mixture prepared by reconstituting 500 mg Streptavidin-PVT SPA beads in 373 ml of Tris-buffered saline containing 673.6 g cesium chloride, 20 ml 0.5M EDTA and 27.5 mg ATP (disodium salt) per litre. The plate is again incubated at room temperature for 30 minutes with shaking, then sealed using Top Seal-S (Canberra Packard) according to the manufacturer's instructions and left to stand at room temperature for 1 hour. The resulting scintillations are counted using a Packard TopCount, each well being counted for 1 minute.
The procedure is repeated for different concentrations of test compound selected to cover the range of 0% to 100% inhibition and the concentration at which 50% inhibition of syk kinase phosphorylation occurs (IC50) for each compound is determined from concentration-inhibition curves in a conventional manner.

Row | SMILES | IC50
1 | CC(=O)N(C)c1ccc(Nc2nc(NC3CCC3)c3nc[nH]c3n2)cc1 [Example 6] | 10 nM
2 | CC(=O)N1CCN(c2ccc(Nc3nc(NC4CCC4)c4nc[nH]c4n3)cc2)CC1 [Example 104] | 3.6 nM
3 | CC(=O)N(C)c1ccc(Nc2nc(NC(C)(C)C)c3nc[nH]c3n2)cc1 [Example 138] | 14 nM
4 | CCN(C(C)=O)c1ccc(Nc2nc(NC(C)C)c3nc[nH]c3n2)cc1 [Example 170] | 10 nM
5 | CC(=O)N1CCN(c2ccc(Nc3nc(NC4CC4)c4nc[nH]c4n3)cc2)CC1 [Example 103] | 2 nM

Next, values leading:

Row | IC50 | SMILES
6 | 5 nM | CN1CCN(c2ccc(Nc3nc(NC4CC4)c4nc[nH]c4n3)cc2)CC1 [Example 102]
7 | 5 nM | CC(C)(C)OC(=O)Nc1ccc(Nc2nc(NC3CC3)c3nc[nH]c3n2)cc1 [Example 3]
8 | 9 nM | c1nc2c(NC3CC3)nc(Nc3ccc(N4CCOCC4)cc3)nc2[nH]1 [Example 5]

system: not given; assay: not given; settings: not given

Row | SMILES | melting point
9 | CC(=O)N(C)c1ccc(Nc2nc(NC3CCC3)c3nc[nH]c3n2)cc1 (as salt: HCl) [Example 6] | 314 to 318 °C
10 | CC(=O)N(C)c1ccc(Nc2nc(NC(C)(C)C)c3nc[nH]c3n2)cc1 [Example 138] | 273 to 274 °C
11 | c1nc2c(NC3CC3)nc(Nc3ccc(N4CCOCC4)cc3)nc2[nH]1 [Example 5] | 201.9 to 203.7 °C
12 | c1ccc(Nc2nc(NC3CCC3)c3[nH]cnc3n2)cc1 [Example 121, 6-Cyclobutylamino-2-anilinopurine] | 312 to 314 °C

Reference: patent US6589950B1, “Purine derivatives inhibitors of tyrosine protein kinase SYK” (Novartis AG, priority 1999, dated 2003)
